{"source": "patent US20060084682A1", "about": "“Thrombopoietin mimetics” (priority 2002, published 2006)", "molecular_target": "T1, human Tpo-R (Homo sapiens, UniProt P40238)", "T1 construct": "expressed in transfected cells; host or cells: murine BaF3 cell line", "T1 sequence (P40238 26-635)": "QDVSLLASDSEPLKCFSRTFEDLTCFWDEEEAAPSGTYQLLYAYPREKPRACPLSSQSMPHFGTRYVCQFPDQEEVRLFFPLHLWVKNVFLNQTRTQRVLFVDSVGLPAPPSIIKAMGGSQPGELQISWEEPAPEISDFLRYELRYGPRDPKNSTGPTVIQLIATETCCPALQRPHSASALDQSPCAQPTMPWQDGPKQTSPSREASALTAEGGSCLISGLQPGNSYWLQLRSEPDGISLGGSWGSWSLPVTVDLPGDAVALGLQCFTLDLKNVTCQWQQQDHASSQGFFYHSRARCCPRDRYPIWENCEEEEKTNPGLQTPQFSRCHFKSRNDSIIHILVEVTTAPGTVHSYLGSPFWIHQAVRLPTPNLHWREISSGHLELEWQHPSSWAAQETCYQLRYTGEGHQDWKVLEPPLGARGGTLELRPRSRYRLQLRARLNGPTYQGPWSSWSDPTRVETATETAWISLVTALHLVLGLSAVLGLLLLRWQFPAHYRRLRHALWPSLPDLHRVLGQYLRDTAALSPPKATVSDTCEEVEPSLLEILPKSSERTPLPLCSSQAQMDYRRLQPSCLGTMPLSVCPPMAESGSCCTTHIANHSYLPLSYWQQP", "test": "in vitro proliferation assay using the murine BaF3 cell line transfected with human Tpo-R", "type": "cell-based", "details": "at a concentration of 2 uM", "description": "Compounds of the present invention were tested for potency as mimetics of TPO in an in vitro proliferation assay using the murine BaF3 cell line transfected with human Tpo-R. Survival and growth is dependent on the presence of TPO.", "data": [{"compound": "O=C1NC(=S)SC1=Cc1ccc2[nH]c(-c3cccc(-c4ccc(Cl)c(Cl)c4)n3)nc2c1", "note": "[Example 1, 5-{2-[6-(3,4-dichloro-phenyl)-pyridin-2-yl]-1H-benzoimidazol-5-ylmethylene}-2-thioxo-thiozolidin-4-one]", "values": [{"measurement": "activation, % of control (control is the maximal response to TPO), proliferation of BaF3 cells", "result": "about 20 % of control"}]}]}
